Assay results from ChEMBL document CHEMBL6103613 (J Med Chem, 2025).
Converted amounts (≈) assume the structure as drawn. Positions of bridges follow the written chain, without caps; N, C: chain ends. Non-standard residues stand in square brackets, D forms with d. Residues, ends and D or L forms follow the SMILES beside them. *: point of attachment. X1 = CC[C@H](C)CCCCC(=O)*; dDab = NCC[C@@H](N)C(=O)O; Dab = NCC[C@H](N)C(=O)O

What was measured:
Staphylococcus aureus [1] = assay: Antimicrobial activity against Staphylococcus aureus ATCC 25923 assessed as inhibition of visible bacterial growth incubated for 18 hrs by CLSI based analysis; type: functional
Staphylococcus aureus [2] = assay: Antimicrobial activity against methicillin-resistant Staphylococcus aureus clinical isolate 3 assessed as inhibition of visible bacterial growth incubated for 18 hrs by CLSI based analysis; type: functional
Enterococcus faecium = assay: Antimicrobial activity against vancomycin-resistant Enterococcus faecium assessed as inhibition of visible bacterial growth incubated for 18 hrs by CLSI based analysis; type: functional
Staphylococcus aureus [3] = assay: Antimicrobial activity against methicillin-resistant Staphylococcus aureus clinical isolate 2 assessed as inhibition of visible bacterial growth incubated for 18 hrs by CLSI based analysis; type: functional
[4] = tested on: Staphylococcus epidermidis; assay: Antimicrobial activity against Staphylococcus epidermidis ATCC 12228 assessed as inhibition of visible bacterial growth incubated for 18 hrs by CLSI based analysis; type: functional
Bacillus subtilis = assay: Antimicrobial activity against Bacillus subtilis ATCC 23875 assessed as inhibition of visible bacterial growth incubated for 18 hrs by CLSI based analysis; type: functional
Staphylococcus aureus [5] = assay: Antimicrobial activity against methicillin-resistant Staphylococcus aureus clinical isolate 4 assessed as inhibition of visible bacterial growth incubated for 18 hrs by CLSI based analysis; type: functional
Enterococcus gallinarum = assay: Antimicrobial activity against Enterococcus gallinarum ATCC 49573 assessed as inhibition of visible bacterial growth incubated for 18 hrs by CLSI based analysis; type: functional
Enterococcus faecalis = assay: Antimicrobial activity against Enterococcus faecalis ATCC 19433 assessed as inhibition of visible bacterial growth incubated for 18 hrs by CLSI based analysis; type: functional
Staphylococcus aureus [6] = assay: Antimicrobial activity against methicillin-resistant Staphylococcus aureus ATCC 43300 assessed as inhibition of visible bacterial growth incubated for 18 hrs by CLSI based analysis; type: functional
Candida albicans = assay: Antifungal activity against Candida albicans assessed as reduction in fungal growth incubated for 18 hrs by CLSI based analysis; type: functional
[7] = Hemolytic activity against mouse Red blood cells at 100 microg/ml incubated for 1 hr relative to control; type: toxicity, cell-based, Erythrocyte; details: at 100 µg/mL, read-out: Activity
[8] = Hemolytic activity against mouse Red blood cell incubated for 1 hr; type: toxicity, cell-based; details: erythrocyte
[9] = Therapeutic index, ratio of HC5 for hemolytic activity in mouse Red blood cell to MIC for antimicrobial activity against Staphylococcus aureus ATCC 25923 assessed as inhibition of visible bacterial growth; type: toxicity, cell-based, RBC; details: red blood cells, read-out: TI
Staphylococcus aureus [10] = assay: Antimicrobial activity against Staphylococcus aureus assessed as inhibition of visible bacterial growth incubated for 18 hrs by CLSI based analysis; type: functional
Escherichia coli = assay: Antimicrobial activity against Escherichia coli assessed as inhibition of visible bacterial growth incubated for 18 hrs by CLSI based analysis; type: functional
Cell membrane [11] = assay: Disruption of cell membrane integrity in Staphylococcus aureus at 4 times of MIC incubated for 1 mins by Propidium iodide staining based analysis; type: subcellular
Cell membrane [12] = assay: Disruption of cell membrane integrity in Staphylococcus aureus at 4 times of MIC incubated for 30 mins by Propidium iodide staining based analysis; type: subcellular

| Compound | MIC (Staphylococcus aureus [1]) [µg/mL] | MIC (Staphylococcus aureus [2]) [µg/mL] | MIC (Enterococcus faecium) [µg/mL] | MIC (Staphylococcus aureus [3]) [µg/mL] | MIC [4] [µg/mL] | MIC (Bacillus subtilis) [µg/mL] | MIC (Staphylococcus aureus [5]) [µg/mL] | MIC (Enterococcus gallinarum) [µg/mL] | MIC (Enterococcus faecalis) [µg/mL] | MIC (Staphylococcus aureus [6]) [µg/mL] | MIC (Candida albicans) [µg/mL] | hemolysis at 1 h, 100 microg/ml [7] [%] | HC5 [8] [µg/mL] | selectivity ratio [9] | MIC (Staphylococcus aureus [10]) [µg/mL] | MIC (Escherichia coli) [µg/mL] | Activity (Cell membrane [11]) [%] | Activity (Cell membrane [12]) [%] |
| --- | --- | --- | --- | --- | --- | --- | --- | --- | --- | --- | --- | --- | --- | --- | --- | --- | --- | --- |
| CC(C)C[C@H]1NC(=O)[C@H](Cc2c(C(c3ccccc3)(c3ccccc3)c3ccccc3)[nH]c3ccccc23)NC(=O)[C@@H](C(C)C)NC(=O)[C@@H]2CSC(N2)[C@H](C(C)C)NC(=O)[C@@H](C(C)C)NC(=O)[C@H](C(C)C)NC1=O | > 50 | > 50 | > 50 | > 50 | > 50 | > 50 | > 50 | > 50 | > 50 | > 50 | – | – | – | – | – | – | – | – |
| CC(C)C[C@H]1NC(=O)[C@H](Cc2c(C(c3ccccc3)(c3ccccc3)c3ccccc3)[nH]c3ccccc23)NC(=O)[C@@H](C(C)C)NC(=O)[C@@H]2CSC(N2)[C@H](C(C)C)NC(=O)[C@@H](CCCCN)NC(=O)[C@H](C(C)C)NC1=O | 3.13 (≈ 2.97 µM) | 6.25 (≈ 5.93 µM) | 12.5 (≈ 11.9 µM) | 3.13 (≈ 2.97 µM) | 6.25 (≈ 5.93 µM) | 6.25 (≈ 5.93 µM) | 6.25 (≈ 5.93 µM) | 6.25 (≈ 5.93 µM) | 12.5 (≈ 11.9 µM) | 3.13 (≈ 2.97 µM) | 3.13 (≈ 2.97 µM) | 23 | 44.04 | 14.1 | 3.13 (≈ 2.97 µM) | 3.13 (≈ 2.97 µM) | – | – |
| CC(C)[C@@H]1NC(=O)[C@@H](C(C)C)NC(=O)[C@H](C(C)C)NC(=O)[C@@H](CCCCN)NC(=O)[C@H](Cc2c(C(c3ccccc3)c3ccccc3)[nH]c3ccccc23)NC(=O)[C@@H](C(C)C)NC(=O)[C@@H]2CSC1N2 | 12.5 (≈ 13 µM) | 12.5 (≈ 13 µM) | 50 (≈ 51.9 µM) | 12.5 (≈ 13 µM) | 6.25 (≈ 6.48 µM) | 6.25 (≈ 6.48 µM) | 12.5 (≈ 13 µM) | 25 (≈ 25.9 µM) | 50 (≈ 51.9 µM) | 12.5 (≈ 13 µM) | 3.13 (≈ 3.25 µM) | – | 74.17 | 5.93 | 3.13 (≈ 3.25 µM) | 3.13 (≈ 3.25 µM) | – | – |
| CC(C)C[C@H]1NC(=O)[C@H](Cc2c(C(c3ccccc3)c3ccccc3)[nH]c3ccccc23)NC(=O)[C@@H](CCCCN)NC(=O)[C@@H]2CSC(N2)[C@H](C(C)C)NC(=O)[C@@H](C(C)C)NC(=O)[C@H](C(C)C)NC1=O | 25 (≈ 25.6 µM) | 25 (≈ 25.6 µM) | 50 (≈ 51.1 µM) | 25 (≈ 25.6 µM) | 25 (≈ 25.6 µM) | 25 (≈ 25.6 µM) | 25 (≈ 25.6 µM) | 50 (≈ 51.1 µM) | 25 (≈ 25.6 µM) | 25 (≈ 25.6 µM) | 3.13 (≈ 3.2 µM) | – | > 100 | > 4 | 3.13 (≈ 3.2 µM) | 3.13 (≈ 3.2 µM) | – | – |
| CC(C)C[C@H]1NC(=O)[C@H](Cc2c[nH]c3ccccc23)NC(=O)[C@@H](C(C)C)NC(=O)[C@@H]2CSC(N2)[C@H](C(C)C)NC(=O)[C@@H](CCCCN)NC(=O)[C@H](C(C)C)NC1=O | > 50 | > 50 | > 50 | > 50 | > 50 | > 50 | > 50 | > 50 | > 50 | > 50 | – | – | – | – | – | – | – | – |
| CC(C)CCCCC(=O)N[C@@H](CCN)C(=O)N[C@H](C(=O)N[C@@H](CCN)C(=O)N[C@H]1CCNC(=O)[C@H]([C@@H](C)O)NC(=O)[C@H](CCN)NC(=O)[C@H](CCN)NC(=O)[C@H](CC(C)C)NC(=O)[C@@H](Cc2ccccc2)NC(=O)[C@@H](CCN)NC1=O)[C@@H](C)O.CC[C@H](C)CCCCC(=O)N[C@@H](CCN)C(=O)N[C@H](C(=O)N[C@@H](CCN)C(=O)N[C@H]1CCNC(=O)[C@H]([C@@H](C)O)NC(=O)[C@H](CCN)NC(=O)[C@H](CCN)NC(=O)[C@H](CC(C)C)NC(=O)[C@@H](Cc2ccccc2)NC(=O)[C@@H](CCN)NC1=O)[C@@H](C)O (X1-[Dab]T[Dab][Dab][dDab][dF]L[Dab][Dab]T; lactam 4-C) | – | – | – | – | – | – | – | – | – | – | – | – | – | – | – | – | 5.54 | 38 |
| CC(C)C[C@H]1NC(=O)[C@H](Cc2c(C(c3ccccc3)c3ccccc3)[nH]c3ccccc23)NC(=O)[C@@H](C(C)C)NC(=O)[C@@H]2CSC(N2)[C@H](C(C)C)NC(=O)[C@@H](CCCCN)NC(=O)[C@H](C(C)C)NC1=O | 12.5 (≈ 12.8 µM) | 12.5 (≈ 12.8 µM) | 25 (≈ 25.6 µM) | 12.5 (≈ 12.8 µM) | 12.5 (≈ 12.8 µM) | 6.25 (≈ 6.39 µM) | 12.5 (≈ 12.8 µM) | 25 (≈ 25.6 µM) | 25 (≈ 25.6 µM) | 12.5 (≈ 12.8 µM) | 3.13 (≈ 3.2 µM) | – | 43.53 | 3.48 | 3.13 (≈ 3.2 µM) | 3.13 (≈ 3.2 µM) | – | – |
| CC(C)C[C@H]1NC(=O)[C@H](Cc2c(C(c3ccccc3)c3ccccc3)[nH]c3ccccc23)NC(=O)[C@@H](C(C)C)NC(=O)[C@@H]2CSC(N2)[C@H](C(C)C)NC(=O)[C@@H](C(C)C)NC(=O)[C@H](C(C)C)NC1=O | > 50 | > 50 | > 50 | > 50 | > 50 | > 50 | > 50 | > 50 | > 50 | > 50 | – | – | – | – | – | – | – | – |
| CC(C)C[C@H]1NC(=O)[C@H](Cc2c(C(c3ccccc3)c3ccccc3)[nH]c3ccccc23)NC(=O)[C@@H](C(C)C)NC(=O)[C@@H]2CSC(N2)[C@H](C(C)C)NC(=O)[C@@H](C(C)C)NC(=O)[C@H](CCCCN)NC1=O | 25 (≈ 25.6 µM) | 25 (≈ 25.6 µM) | 50 (≈ 51.1 µM) | 25 (≈ 25.6 µM) | 25 (≈ 25.6 µM) | 12.5 (≈ 12.8 µM) | 12.5 (≈ 12.8 µM) | 50 (≈ 51.1 µM) | 50 (≈ 51.1 µM) | 25 (≈ 25.6 µM) | 3.13 (≈ 3.2 µM) | – | 64.74 | 2.59 | 3.13 (≈ 3.2 µM) | 3.13 (≈ 3.2 µM) | – | – |
| CC(C)C[C@H]1NC(=O)[C@H](Cc2c(C(c3ccccc3)(c3ccccc3)c3ccccc3)[nH]c3ccccc23)NC(=O)[C@@H](CCCCN)NC(=O)[C@@H]2CSC(N2)[C@H](C(C)C)NC(=O)[C@@H](C(C)C)NC(=O)[C@H](C(C)C)NC1=O | 6.25 (≈ 5.93 µM) | 25 (≈ 23.7 µM) | 25 (≈ 23.7 µM) | 12.5 (≈ 11.9 µM) | 12.5 (≈ 11.9 µM) | 6.25 (≈ 5.93 µM) | 12.5 (≈ 11.9 µM) | 12.5 (≈ 11.9 µM) | 12.5 (≈ 11.9 µM) | 12.5 (≈ 11.9 µM) | 3.13 (≈ 2.97 µM) | – | 46.47 | 7.44 | 3.13 (≈ 2.97 µM) | 3.13 (≈ 2.97 µM) | – | – |
| CC(C)C[C@H]1NC(=O)[C@H](Cc2c(C(c3ccccc3)(c3ccccc3)c3ccccc3)[nH]c3ccccc23)NC(=O)[C@@H](C(C)C)NC(=O)[C@@H]2CSC(N2)[C@H](C(C)C)NC(=O)[C@@H](C(C)C)NC(=O)[C@H](CCCCN)NC1=O | 6.25 (≈ 5.93 µM) | 6.25 (≈ 5.93 µM) | 12.5 (≈ 11.9 µM) | 6.25 (≈ 5.93 µM) | 6.25 (≈ 5.93 µM) | 6.25 (≈ 5.93 µM) | 6.25 (≈ 5.93 µM) | 12.5 (≈ 11.9 µM) | 12.5 (≈ 11.9 µM) | 6.25 (≈ 5.93 µM) | 3.13 (≈ 2.97 µM) | – | 68.73 | 11 | 3.13 (≈ 2.97 µM) | 3.13 (≈ 2.97 µM) | – | – |
| C#CC[C@H]1NC(=O)[C@@H]2CSC(N2)[C@H](C(C)C)NC(=O)[C@@H](C(C)C)NC(=O)[C@H](C(C)C)NC(=O)[C@@H](CCCCN)NC(=O)[C@H](Cc2c(C(c3ccccc3)(c3ccccc3)c3ccccc3)[nH]c3ccccc23)NC1=O | 6.25 (≈ 6.03 µM) | 12.5 (≈ 12.1 µM) | 25 (≈ 24.1 µM) | 6.25 (≈ 6.03 µM) | 6.25 (≈ 6.03 µM) | 6.25 (≈ 6.03 µM) | 6.25 (≈ 6.03 µM) | 12.5 (≈ 12.1 µM) | 25 (≈ 24.1 µM) | 6.25 (≈ 6.03 µM) | 3.13 (≈ 3.02 µM) | – | – | – | 3.13 (≈ 3.02 µM) | 3.13 (≈ 3.02 µM) | – | – |
